In US7754718B2 (priority 2004, dated 2010):
Like-named read-outs stand apart in the source and are kept apart here.

Experiments:
HSV-2 = assay: In vitro antiviral assay for HSV-2; assay type: cell-based, Herpes Simplex Virus 2
Experimental: (§1) The antiviral assays for HBV, (Doong et al., 1991, Proc. Natl. Acad. Sci. U.S.A. 88:8495-8499) HSV-1, (Bastow et al., 1983, Antimicrob. Agents Chemother. 23: 914-917) HSV-2, (Bastow et al., 1983, Antimicrob. Agents Chemother. 23:914-917) EBV, (Yao et al., 1993, Antimicrob. Agents Chemother. 37:1420-1425), CMV (Andreoni et al., 2002, J. Med. Virol. 67:33-40) and HIV (Mellors et al., 1992, Mol. Pharmacol. 41: 446-451) were performed according to the previously reported procedures. Anti-HCV activities were tested in Huh-Luc/neo cell line. Cells were seeded into 48-well plates and grown until confluent. Different concentrations of drugs were added into media (DMEM, 10% dFBS) and incubated for 3 days. At the end of 3-day treatment, medium were removed and 50 μl of Passive lysis buffer (Promega) were added. Cell lysate was shaken at room temperature for 15 min. 30 μl/well of cell lysate was transferred to another 96-well plate, 100 μl/well of luciferase activity assay substrate was added into plate and read by a luminometer (Amersham) immediately.

HSV-1 = assay: In vitro antiviral assay for HSV-1; assay type: cell-based, Herpes Simplex Virus 1
Experimental: as §1

HCV = assay: Anti-HCV activity in Huh-Luc/neo cell line, luciferase activity after 3-day treatment; assay type: cell-based, Hepatitis C virus; settings: Hepatitis C virus, 72 h; for EC50: read-out: Antiviral Activities (EC50, μM) HCV
Experimental: as §1

[1] = Cell cytotoxicity assay on CEM cells; assay type: cell-based; settings: human, read-out: Cytotoxity (ID50, μM) CEM
Experimental: (§2) Cytotoxicities of test compounds on MT-2 (Mellors et al., 1992 Mol. Pharmacol. 41:446-451) and CEM (Grove et al., 1995, Cancer Res. 55:3008-3011) cells were determined according to the previously reported procedures. Hepg2 cells were seeded at a density of 10^4 cells/ml/well in 24-well plates and cultured in MEME supplemented with 10% FBS at 37° C. and 5% CO2. Each test compound at different concentrations was added on the second day of the culture and the cells were incubated for another 3 days. At the end of the incubation period, the medium was removed and 0.5 ml of 0.5% methylene blue in 50% ethanol (v/v) was added to each well and set at room temperature for 30-60 minutes. The methylene blue was removed; the plates were washed with water and allowed to air dry. Once dry, 1% sarcosyl was added to dissolve the stained cell layer. The absorbance at 595 nm was measured with a microplate reader (Molecular Devices Corp. Sunnyvale, Calif.). The cytotoxicity to CEM cell was calculated as described previously (Grove et al., 1995, Cancer Res. 55 (14): 3008-3011).

HBV = assay: In vitro antiviral assay for HBV (Table 1); assay type: cell-based, Hepatitis B virus; settings: Hepatitis B virus, read-out: Antiviral Activities (EC50, μM) HBV
Experimental: as §1

HIV = assay: In vitro antiviral assay for HIV; assay type: cell-based, human immunodeficiency virus; settings: Human immunodeficiency virus 1, read-out: Antiviral Activities (EC50, μM) HIV, in vitro; (T) after a value means toxic
Experimental: as §1

[2] = Cell cytotoxicity assay on MT-2 cells; assay type: cell-based; settings: human, read-out: Cytotoxity (ID50, μM) MT-2
Experimental: as §2

EBV = assay: In vitro antiviral assay for EBV; assay type: cell-based, Epstein-Barr Virus; settings: human gammaherpesvirus 4, read-out: Antiviral Activities (EC50, μM) EBV
Experimental: as §1

[3] = Huh-Luc/neo cells, 3 days, read-out: HCV percent of inhibition
[4] = Human alphaherpesvirus 2, read-out: Antiviral Activities (EC50, μM) HSV-2
[5] = Human alphaherpesvirus 1, read-out: Antiviral Activities (EC50, μM) HSV-1
[6] = Huh-Luc/neo cells, 3 days, given as a bound only

Compound	EC50 (HSV-2; in vitro, read-out: Antiviral Activities (EC50, μM) HSV-2) [µM]	EC50 (HSV-1; in vitro, read-out: Antiviral Activities (EC50, μM) HSV-1) [µM]	inhibition at 10 µM (HCV; [3]) [%]	IC50 [1] [µM]	EC50 (HBV) [µM]	EC50 (HSV-2; [4]) [µM]	EC50 (HIV) [µM]	IC50 [2] [µM]	EC50 (HSV-1; [5]) [µM]	EC50 (EBV) [µM]	melting point [°C]	EC50 (HCV; [6]) [µM]	inhibition at 3 µM (HCV; at 3 μM, Huh-Luc/neo cells, 3 days, read-out: HCV percent of inhibition) [%]	inhibition at 1 µM (HCV; at 1 μM, Huh-Luc/neo cells, 3 days, read-out: HCV percent of inhibition) [%]	EC50 (HCV) [µM]
Nc1nc2c(ncn2COCCO)c(=O)[nH]1 [ACV, reference compound]	21	8	–	–	–	–	–	–	–	–	–	–	–	–	–
O=C(OCc1ccccc1)c1cc2ccc3c(c2c(-c2ccc4c(c2)OCO4)c1COCc1ccccc1)OCO3 [Compound 4, 9-Benzo[1,3]dioxol-5-yl-8-benzyloxymethyl-naphtho[1,2-d][1,3]-dioxole-7-carboxylic acid benzyl ester]	–	–	71	> 50	> 10	> 50	> 100	> 100	> 50	> 20	–	–	–	–	–
O=C(O)c1cc2ccc3c(c2c(-c2ccc4c(c2)OCO4)c1COCc1ccccc1)OCO3 [Compound 5, 9-Benzo[1,3]dioxol-5-yl-8-benzyloxymethyl-naphtho[1,2-d][1,3]dioxole-7-carboxylic acid]	–	–	–	> 50	> 10	> 25	> 48	48	> 25	> 20	219 to 221	> 10	–	–	–
O=C(OCCCOCc1ccccc1)c1cc2ccc3c(c2c(-c2ccc4c(c2)OCO4)c1COCc1ccccc1)OCO3 [Compound 6, 9-Benzo[1,3]dioxol-5-yl-8-benzyloxymethyl-naphtho[1,2-d][1,3]dioxole-7-carboxylic acid 3-benzyloxy-propyl ester]	–	–	55	> 50	> 10	> 50	> 100	> 100	> 50	> 20	–	–	–	–	–
Cc1c(C(=O)OCCCO)cc2ccc3c(c2c1-c1ccc2c(c1)OCO2)OCO3 [Compound 7, 9-Benzo[1,3]dioxol-5-yl-8-methyl-naphtho[1,2-d][1,3]dioxole-7-carboxylic acid 3-hydroxy-propyl ester]	–	–	–	46	> 23	> 25	> 10	10	> 25	> 15	–	> 10	–	–	–
CNC(=O)c1cc2ccc3c(c2c(-c2ccc4c(c2)OCO4)c1C(=O)O)OCO3 [Compound 13, 9-Benzo[1,3]dioxol-5-yl-7-methylcarbamoyl-naphtho[1,2-d][1,3]dioxole-8-carboxylic acid]	–	–	–	29	> 20	> 25	> 26	26	12	> 20	–	> 10	–	–	–
CN(C)C(=O)c1cc2ccc3c(c2c(-c2ccc4c(c2)OCO4)c1C(=O)O)OCO3 [Compound 14, 9-Benzo[1,3]dioxol-5-yl-7-dimethylcarbamoyl-naphtho[1,2-d][1,3]dioxole-8-carboxylic acid]	–	–	–	76	> 10	> 50	> 70	70	> 50	> 20	–	> 10	–	–	–
COc1ccc(-c2c(C(=O)O)c(C(N)=O)cc3ccc4c(c23)OCO4)cc1OC [Compound 15, 7-Carbamoyl-9-(3,4-dimethoxy-phenyl)-naphtho[1,2-d][1,3]dioxole-8-carboxylic acid]	–	–	–	3	0.8	> 3	> 10	10	0.8	> 20	–	–	64	–	–
O=C1NCc2c1cc1ccc3c(c1c2-c1ccc2c(c1)OCO2)OCO3 [Compound 18, 10-Benzo[1,3]dioxol-5-yl-8,9-dihydro-1,3-dioxa-8-aza-dicyclopenta[a,g]naphthalen-7-one]	–	–	–	4.5	0.08	0.16	> 4	4	0.29	11	–	–	–	55	–
O=C1c2cc3ccc4c(c3c(-c3ccc5c(c3)OCO5)c2CN1CCCOCc1ccccc1)OCO4 [Compound 20, 10-Benzo[1,3]dioxol-5-yl-8-(3-benzyloxy-propyl)-8,9-dihydro-1,3-dioxa-8-aza-dicyclopenta[a,g]naphthalen-7-one]	–	–	85	67	> 20	> 20	> 28	28	13	> 20	–	–	–	–	–
COC1=NC(=O)c2c1cc1ccc3c(c1c2-c1ccc2c(c1)OCO2)OCO3 [Compound 23, 10-Benzo[1,3]dioxol-5-yl-7-methoxy-1,3-dioxa-8-aza-dicyclopenta[a,g]naphthalen-9-one]	–	–	–	–	–	–	–	–	–	–	306 to 308	–	–	–	–
CN1C(=O)c2cc3ccc4c(c3c(-c3ccc5c(c3)OCO5)c2C1=O)OCO4 [Compound 23]	–	–	–	> 100	> 10	> 50	> 100	> 100	> 50	> 20	–	–	–	–	> 10
CC(=O)NN1Cc2c(cc3ccc4c(c3c2-c2ccc3c(c2)OCO3)OCO4)C1=O [Compound 26, N-(10-Benzo[1,3]dioxol-5-yl-7-oxo-7,9-dihydro-1,3-dioxa-8-aza-dicyclopenta[a,g]naphthalen-8-yl)-acetamide]	–	–	–	40	1	10	> 7	7	5	13	–	> 10	–	–	–
CC(=O)NN1Cc2cc3ccc4c(c3c(-c3ccc5c(c3)OCO5)c2C1=O)OCO4 [Compound 27, N-(10-Benzo[1,3]dioxol-5-yl-9-oxo-7,9-dihydro-1,3-dioxa-8-aza-dicyclopenta[a,g]naphthalen-8-yl)-acetamide]	–	–	25	32	> 20	40	> 25	25	17	> 20	–	–	–	–	–
O=c1[nH][nH]c(=O)c2c(-c3ccc4c(c3)OCO4)c3c4c(ccc3cc12)OCO4 [Compound 28, 11-Benzo[1,3]dioxol-5-yl-8,9-dihydro-1,3-dioxa-8,9-diaza-cyclopenta[a]anthracene-7,10-dione]	–	–	74	50	0.03	1.4	–	16	1.4	> 25	–	–	–	–	–
CCOC(=O)c1c(C(=O)OCC)c(-c2ccc3c(c2)OCO3)c2c3c(ccc2c1OC)OCO3 [Compound 35, 9-Benzo[1,3]dioxol-5-yl-6-methoxy-naphtho[1,2-d][1,3]dioxole-7,8-dicarboxylic acid diethyl ester]	–	–	60	> 100	> 20	> 50	> 24	24	> 50	> 20	–	–	–	–	–
NC(=O)c1cc2ccc3c(c2c(-c2ccc4c(c2)OCO4)c1C(N)=O)OCO3 [Compound 36, 9-Benzo[1,3]dioxol-5-yl-naphtho[1,2-d][1,3]dioxole-7,8-dicarboxylic acid diamide]	–	–	–	> 100	> 20	> 50	> 100	> 100	> 50	> 20	–	> 10	–	–	–
Nc1ccn([C@H]2CC[C@@H](CO)O2)c(=O)n1 [ddC, 2′,3′-Dideoxycytidine, reference compound]	–	–	–	5	–	–	0.8	70	–	–	–	–	–	–	–
